Consider four compounds from publication PMC4305287, “Two Novel α7 Nicotinic Acetylcholine Receptor Ligands: In Vitro Properties and Their Efficacy in Collagen-Induced Arthritis in Mice” (PLoS ONE, 2015).

The test system of assay [1] is T1, human α7 nAChR primed with PNU-120596.
T1 construct: expressed in transfected cells; host or cells: Xenopus laevis oocytes injected with cRNA; clones from Dr. Jon Lindstrom (α7) and Dr. Millet Treinin (RIC-3)
The assay is described as follows: electrophysiology of oocytes primed with PNU-120596. Format: biochemical. The method, then:
Each oocyte received two initial control applications of 300 μM ACh, followed by the experimental drug application, and subsequent control application of 300 μM ACh, unless otherwise indicated. Responses to experimental drug applications were determined relative to the preceding ACh control responses in order to normalize the data, compensating for the varying levels of channel expression among the oocytes. Responses for α7 nAChR were calculated as net charge, since peak currents inaccurately report the agonist concentration dependence of α7 nAChR-mediated responses. […] Imax, n, and the EC50 were all unconstrained for the fitting procedures except in the case of the ACh concentration-response curves.

Assay [2] has as its system collagen-induced arthritis. Also noted: method as in PMID 19116908. The conditions noted are these: cited from earlier work.
The test system of the next assay is microglia. Also noted: method as in PMID 22884467. The conditions noted are these: cited from earlier work.
Another assay deals with memory retention. Also noted: method as in PMID 19845675. The note with it: cited from earlier work.

With `CCN1C[C@]2(COC(=O)c3ccccc3N3C(=O)C[C@H](C)C3=O)CC[C@H](OC)[C@@]34[C@@H]5C[C@H]6[C@H](OC)[C@@H]5[C@](O)(C[C@@H]6OC)[C@@](O)([C@@H](OC)[C@H]23)[C@@H]14` [MLA, methyllycaconitine], the “ion channel response of PNU-120596 primed cells” value in assay [1] (after 60 s priming with 300 μM PNU-120596, PMP-311 1 μM, PMP-072 10 μM, MLA 10 μM) is recorded as “fail to activate the primed cells”.

As to `COc1cc(OC)c(NC(=O)Nc2cc(C)on2)cc1Cl` [PNU-120596], the “ion channel current during PNU-120596 application alone” value in assay [1] (300 μM for 60 s) is reported as “No ion channel current was stimulated”. In the case of `O=C1NCC2(CN3CCC2CC3)O1` (centres unmarked) [AR-R17779], the “effect on arthritis activity in CIA” value in assay [2] is listed as “ameliorates arthritis activity”. For `O=C(c1ccc(-c2cccc(C(F)(F)F)c2)o1)N1CCN2CCC1CC2` [NS-6740], the “LPS-induced TNF release in microglia” value in the assay on microglia is listed as “reduce LPS-induced TNF release”. Moreover, the “memory retention in a cognitive mouse model” value with memory retention was “unable to improve memory retention”.
